Assay results reported in ChEMBL document CHEMBL4414553, “Imidazopyridine-based selective and multifunctional ligands of biological targets associated with psychiatric and neurodegenerative diseases” (Eur J Med Chem, 2019).

How the values were obtained:
[1] = Lipophilicity, log D of the compound; format: physicochemical; settings: octanol/water
[2] = Partition coefficient, log P of the compound; format: physicochemical; settings: octanol/water
[3] = Inhibition of CBR (unknown origin); design: species or system Homo sapiens
[4] = molecular target: Glutamate [NMDA] receptor; test: Modulator activity at NMDA receptor (unknown origin); format: protein-complex assay, Homo sapiens
[5] = molecular target: T1, D(4) dopamine receptor (Homo sapiens, UniProt P21917); test: Agonist activity at dopamine D4 receptor (unknown origin)
T1 sequence (P21917 whole entry): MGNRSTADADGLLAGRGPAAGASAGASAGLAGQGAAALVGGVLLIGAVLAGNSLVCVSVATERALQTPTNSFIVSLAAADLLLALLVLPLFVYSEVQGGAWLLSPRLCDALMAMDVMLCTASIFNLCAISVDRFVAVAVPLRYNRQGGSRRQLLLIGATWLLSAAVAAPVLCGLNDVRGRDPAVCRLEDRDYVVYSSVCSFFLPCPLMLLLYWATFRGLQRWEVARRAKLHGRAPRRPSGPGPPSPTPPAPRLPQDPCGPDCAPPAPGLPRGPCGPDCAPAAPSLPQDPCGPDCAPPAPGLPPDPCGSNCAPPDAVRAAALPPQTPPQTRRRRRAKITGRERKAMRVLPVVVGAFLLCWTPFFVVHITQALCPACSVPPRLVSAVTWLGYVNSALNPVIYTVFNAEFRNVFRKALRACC

[6] = molecular target: Dual specificity tyrosine-phosphorylation-regulated kinase 1A (Homo sapiens, UniProt Q13627); test: Inhibition of DYRK1A (unknown origin) by TR-FRET assay
[7] = tested on: Mus musculus; test: Inhibition of DYRK1A in mouse at 9 mg/kg relative to control; format: functional
[8] = molecular target: Glycogen synthase kinase-3 (Homo sapiens, UniProt P49840+P49841); test: Inhibition of GSK3 (unknown origin); format: protein assay
[9] = molecular target: T2, Adenosine receptor A1 (Homo sapiens, UniProt P30542); test: Inhibition of human A1 receptor
T2 sequence (P30542 whole entry): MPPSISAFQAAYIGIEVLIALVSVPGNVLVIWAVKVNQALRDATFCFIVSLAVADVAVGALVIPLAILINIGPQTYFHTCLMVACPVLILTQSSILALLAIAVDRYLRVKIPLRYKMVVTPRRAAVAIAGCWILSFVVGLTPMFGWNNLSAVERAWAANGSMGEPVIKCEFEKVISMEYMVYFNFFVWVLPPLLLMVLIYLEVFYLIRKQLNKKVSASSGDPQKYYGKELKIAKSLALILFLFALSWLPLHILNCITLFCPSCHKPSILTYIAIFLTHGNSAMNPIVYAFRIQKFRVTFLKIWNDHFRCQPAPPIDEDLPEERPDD

[10] = molecular target: Adenosine A2 receptor (Homo sapiens, UniProt P29275+P29274); test: Inhibition of GFP-tagged human A2 receptor expressed in HEK cells by FRET-binding assay; format: cell-based
[11] = molecular target: Translocator protein (Homo sapiens, UniProt P30536); test: Inhibition of TSPO (unknown origin)
Sequence of Translocator protein (P30536 whole entry): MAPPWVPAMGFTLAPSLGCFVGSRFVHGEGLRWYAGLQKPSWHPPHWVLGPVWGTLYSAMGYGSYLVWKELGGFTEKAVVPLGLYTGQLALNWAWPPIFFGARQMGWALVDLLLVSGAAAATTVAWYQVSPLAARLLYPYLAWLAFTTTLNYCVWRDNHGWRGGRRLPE

[12] = Inhibition of MARK (unknown origin); design: species or system Homo sapiens
[13] = molecular target: T3, Fatty-acid amide hydrolase 1 (Homo sapiens, UniProt O00519); test: Inhibition of FAAH (unknown origin)
T3 sequence (O00519 whole entry): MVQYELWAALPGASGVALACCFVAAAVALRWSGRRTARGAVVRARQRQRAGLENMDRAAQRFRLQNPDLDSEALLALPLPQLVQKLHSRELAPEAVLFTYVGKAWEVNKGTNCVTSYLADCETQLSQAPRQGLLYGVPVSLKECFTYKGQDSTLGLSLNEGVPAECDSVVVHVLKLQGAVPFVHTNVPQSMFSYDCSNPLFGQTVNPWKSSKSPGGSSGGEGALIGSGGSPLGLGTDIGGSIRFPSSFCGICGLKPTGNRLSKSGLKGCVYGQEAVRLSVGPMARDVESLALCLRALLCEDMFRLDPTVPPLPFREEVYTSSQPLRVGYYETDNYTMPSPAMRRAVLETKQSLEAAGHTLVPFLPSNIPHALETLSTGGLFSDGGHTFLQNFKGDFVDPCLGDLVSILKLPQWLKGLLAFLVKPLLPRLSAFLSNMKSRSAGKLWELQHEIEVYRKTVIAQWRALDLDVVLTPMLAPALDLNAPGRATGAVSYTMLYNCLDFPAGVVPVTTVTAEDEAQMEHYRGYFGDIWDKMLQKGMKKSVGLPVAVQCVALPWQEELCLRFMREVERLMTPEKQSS

[14] = molecular target: T4, 5-hydroxytryptamine receptor 3A (Homo sapiens, UniProt P46098); test: Antagonist activity at 5-HT3 receptor (unknown origin)
T4 sequence (P46098 whole entry): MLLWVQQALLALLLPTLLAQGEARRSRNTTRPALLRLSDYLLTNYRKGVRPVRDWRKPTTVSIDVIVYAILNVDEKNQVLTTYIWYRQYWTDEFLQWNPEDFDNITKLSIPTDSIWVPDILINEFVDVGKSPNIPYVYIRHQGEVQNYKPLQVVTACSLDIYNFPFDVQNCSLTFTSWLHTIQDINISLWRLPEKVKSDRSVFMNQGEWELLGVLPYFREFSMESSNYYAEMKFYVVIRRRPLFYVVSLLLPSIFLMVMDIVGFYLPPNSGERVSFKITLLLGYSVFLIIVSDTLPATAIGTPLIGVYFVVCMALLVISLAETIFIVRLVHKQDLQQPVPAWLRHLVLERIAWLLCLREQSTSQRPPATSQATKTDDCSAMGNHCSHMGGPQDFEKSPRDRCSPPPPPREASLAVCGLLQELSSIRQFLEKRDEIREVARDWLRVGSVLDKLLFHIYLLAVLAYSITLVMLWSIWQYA

[15] = tested on: Mus musculus; test: Inhibition of DYRK1A in mouse at 3 mg/kg relative to control; format: functional
[16] = molecular target: T5, 5-hydroxytryptamine receptor 4 (Homo sapiens, UniProt Q13639); test: Inhibition of 5-HT4 receptor (unknown origin)
T5 sequence (Q13639 whole entry): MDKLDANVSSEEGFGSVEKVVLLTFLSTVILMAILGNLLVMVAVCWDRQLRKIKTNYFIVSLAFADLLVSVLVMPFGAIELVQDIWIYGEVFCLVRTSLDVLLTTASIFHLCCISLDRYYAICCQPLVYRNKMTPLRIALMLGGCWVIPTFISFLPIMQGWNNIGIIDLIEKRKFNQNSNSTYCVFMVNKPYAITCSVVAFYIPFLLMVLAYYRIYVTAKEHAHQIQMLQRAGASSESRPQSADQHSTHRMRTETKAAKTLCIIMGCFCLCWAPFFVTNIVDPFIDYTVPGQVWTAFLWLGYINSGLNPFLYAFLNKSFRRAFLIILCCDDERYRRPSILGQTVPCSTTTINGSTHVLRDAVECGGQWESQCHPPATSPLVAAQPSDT

[17] = molecular target: cAMP and cAMP-inhibited cGMP 3',5'-cyclic phosphodiesterase 10A (Homo sapiens, UniProt Q9Y233); test: Inhibition of human PDE10
Sequence of cAMP and cAMP-inhibited cGMP 3',5'-cyclic phosphodiesterase 10A (Q9Y233 whole entry): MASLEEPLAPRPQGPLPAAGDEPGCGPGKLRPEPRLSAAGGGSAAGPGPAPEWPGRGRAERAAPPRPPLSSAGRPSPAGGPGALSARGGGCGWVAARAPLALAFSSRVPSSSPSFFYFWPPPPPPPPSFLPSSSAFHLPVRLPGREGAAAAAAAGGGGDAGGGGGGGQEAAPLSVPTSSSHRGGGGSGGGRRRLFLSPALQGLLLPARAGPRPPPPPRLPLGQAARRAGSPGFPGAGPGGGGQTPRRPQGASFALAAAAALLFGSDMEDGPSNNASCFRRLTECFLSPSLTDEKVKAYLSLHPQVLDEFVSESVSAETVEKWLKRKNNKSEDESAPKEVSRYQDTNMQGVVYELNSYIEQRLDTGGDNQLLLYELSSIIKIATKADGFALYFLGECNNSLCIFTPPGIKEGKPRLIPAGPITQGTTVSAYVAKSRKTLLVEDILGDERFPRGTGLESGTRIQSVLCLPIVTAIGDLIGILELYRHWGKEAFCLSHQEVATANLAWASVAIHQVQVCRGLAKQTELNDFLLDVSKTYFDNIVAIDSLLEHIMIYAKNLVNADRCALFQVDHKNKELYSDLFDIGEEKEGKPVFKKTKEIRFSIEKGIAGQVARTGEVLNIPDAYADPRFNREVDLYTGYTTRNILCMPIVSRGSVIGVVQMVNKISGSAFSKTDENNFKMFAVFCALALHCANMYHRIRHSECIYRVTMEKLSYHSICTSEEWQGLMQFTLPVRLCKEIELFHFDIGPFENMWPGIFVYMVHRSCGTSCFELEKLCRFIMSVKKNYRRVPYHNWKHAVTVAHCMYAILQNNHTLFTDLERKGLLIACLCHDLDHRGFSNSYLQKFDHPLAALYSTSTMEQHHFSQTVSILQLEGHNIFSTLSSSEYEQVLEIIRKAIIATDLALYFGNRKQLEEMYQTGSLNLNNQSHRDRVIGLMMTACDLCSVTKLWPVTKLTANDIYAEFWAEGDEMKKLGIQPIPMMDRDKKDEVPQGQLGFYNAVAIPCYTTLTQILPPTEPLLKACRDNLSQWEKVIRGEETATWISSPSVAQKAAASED

[18] = molecular target: Histamine H3 receptor (Cavia porcellus, UniProt Q9JI35); test: Inhibition of Guinea Pig Ileum H3R
Sequence of Histamine H3 receptor (Q9JI35 whole entry): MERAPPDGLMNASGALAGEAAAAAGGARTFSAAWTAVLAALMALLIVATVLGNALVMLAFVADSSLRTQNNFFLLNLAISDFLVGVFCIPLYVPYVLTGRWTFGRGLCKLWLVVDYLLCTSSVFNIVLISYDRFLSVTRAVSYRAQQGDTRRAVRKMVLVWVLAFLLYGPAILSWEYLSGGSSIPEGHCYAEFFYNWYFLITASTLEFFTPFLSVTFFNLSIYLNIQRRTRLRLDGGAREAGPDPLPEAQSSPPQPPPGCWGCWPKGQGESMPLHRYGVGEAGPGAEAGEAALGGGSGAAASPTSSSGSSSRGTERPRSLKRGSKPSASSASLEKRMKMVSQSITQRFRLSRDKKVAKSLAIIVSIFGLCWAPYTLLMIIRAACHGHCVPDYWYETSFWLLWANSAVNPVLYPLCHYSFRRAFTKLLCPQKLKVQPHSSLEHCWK

[19] = molecular target: T6, Sodium- and chloride-dependent glycine transporter 1 (Homo sapiens, UniProt P48067); test: Inhibition of GlyT1 (unknown origin)
T6 sequence (P48067 whole entry): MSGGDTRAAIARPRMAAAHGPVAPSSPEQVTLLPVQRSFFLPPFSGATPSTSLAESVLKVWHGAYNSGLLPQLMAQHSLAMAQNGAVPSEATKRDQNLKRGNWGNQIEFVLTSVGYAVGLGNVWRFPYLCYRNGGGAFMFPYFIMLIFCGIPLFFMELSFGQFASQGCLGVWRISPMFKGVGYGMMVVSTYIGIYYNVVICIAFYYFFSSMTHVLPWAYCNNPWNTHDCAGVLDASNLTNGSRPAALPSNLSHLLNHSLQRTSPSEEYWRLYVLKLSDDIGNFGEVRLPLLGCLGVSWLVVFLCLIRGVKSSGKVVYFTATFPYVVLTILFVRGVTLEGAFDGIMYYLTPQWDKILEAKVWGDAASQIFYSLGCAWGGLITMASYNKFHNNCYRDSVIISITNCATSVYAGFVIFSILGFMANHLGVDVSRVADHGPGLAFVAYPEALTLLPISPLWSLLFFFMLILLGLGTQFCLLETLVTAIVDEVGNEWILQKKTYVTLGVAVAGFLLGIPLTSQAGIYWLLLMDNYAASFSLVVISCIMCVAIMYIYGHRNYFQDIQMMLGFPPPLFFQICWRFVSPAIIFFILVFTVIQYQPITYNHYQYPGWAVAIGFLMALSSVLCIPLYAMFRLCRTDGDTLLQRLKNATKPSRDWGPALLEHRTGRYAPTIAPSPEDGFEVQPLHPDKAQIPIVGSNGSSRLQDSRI

[20] = molecular target: T5, 5-hydroxytryptamine receptor 4; test: Antagonist activity at 5-HT4 receptor (unknown origin)

## c1cnc2[nH]cnc2c1
[1]; read-out: logD
  logD: 0.41
[2]; read-out: logP
  logP: 0.41

## CCCN(CCC)C(=O)Cn1c(-c2ccc(Cl)cc2)nc2cccnc21
[3]
  IC50: 380 nM

## Cc1ccc2c(c1)C1CN(C)CCC1N2CCC(=O)N(C)c1c(C(F)(F)F)nc2ccc(C)cn12 (stereo not given)
[4]
  IC50: 33000 nM

## Clc1ccc(N2CCN(Cc3cn4ccccc4n3)CC2)cc1Cl
[5]
  Ki: 0.99 nM

## Cc1ccc2c(c1)C1CC(C)CCC1N2c1c(C(F)(F)F)nc2c(C)cccn12 (stereo not given)
[4]
  IC50: 40000 nM

## Cc1nc2ccc(-c3cc(N)nc(N)c3)nc2n1C[C@@H](C)Oc1ccccc1
[6]
  IC50: 8 nM
[7]
  inhibition in vivo at 9 mg/kg: 46%

## O=C(NCCCn1ccnc1)c1ccnc2[nH]c(-c3ccc(C(F)(F)F)cc3)nc12
[8]
  IC50: 13 nM

## O=C1NC2CCCCN2C12CCN(CCCN1c3ccccc3CCc3ccc(Cl)cc31)CC2 (stereo not given) [MOSAPRAMINE]
[5]
  Ki: 0.03 nM

## Cc1ccc(-c2nc3ccccn3c2NC2CCCCC2)cc1
[9]
  Ki: 2060 nM
[10]
  Ki: > 100000 nM

## CCCN(CCC)C(=O)Cc1c(-c2ccc(Cl)cc2)nc2c(Cl)cc(Cl)cn12 [ALPDEM]
[11]
  Ki: 0.41 nM

## N[C@H]1CCCC(F)(F)[C@@H]1NC(=O)c1cc(-c2cnc3ccccn23)cs1
[12]
  IC50: 15 nM

## Cn1cnc2cccnc21
[1]; read-out: logD
  logD: 0.63
[2]; read-out: logP
  logP: 0.63

## c1ccn2cncc2c1
[1]; read-out: logD
  logD: 0.17
[2]; read-out: logP
  logP: 0.41

## CCC/C=C/COCC(=O)Nc1cccc(-c2nc3ncccc3o2)c1
[13]
  IC50: 17000 nM

## O=C(NC1CN2CCC1CC2)c1cc(Cl)cn2ccnc12 (stereo not given)
[14]
  IC50: 17.5 nM
  Ki: 12 nM

## O=C(COc1ccc(-c2ccccc2)cc1)Nc1cccc(-c2nc3ncccc3o2)c1
[13]
  IC50: 630 nM

## CCCN(CCC)C(=O)Cc1c(-c2ccc(Cl)cc2)[nH]c2ccc(Cl)cc12
[11]
  Ki: 3.9 nM
[3]
  IC50: > 1000 nM

## Cc1nc2ccc(-c3cc(N)nc(N)c3)nc2n1C1CC1
[15]
  inhibition in vivo at 3 mg/kg: 44%

## CCCN(CCC)C(=O)Cc1c(-c2ccccc2)nc2ccc([N+](=O)[O-])cn12
[11]
  IC50: 11.8 nM
[3]
  IC50: 2740 nM

## CCCN(CCC)C(=O)Cc1c(-c2ccc(Cl)cc2)nc2c(CC(=O)CCCCC(=O)Nc3ccn([C@@H]4O[C@H](CO)[C@@H](O)[C@@H]4O)c(=O)n3)cccn12
[11]
  IC50: 2.13 nM

## CCCN(CCC)C(=O)Cc1c(-c2ccc(Cl)cc2)nc2c(NC(=O)CN(Cc3ccccn3)Cc3ccccn3)cccn12
[11]
  Ki: 293 nM

## c1cc2[nH]cnc2cn1
[1]; read-out: logD
  logD: 0.03
[2]; read-out: logP
  logP: 0.04

## O=C(COc1ccc(-c2ccccc2)cc1)Nc1cccc(-c2nc3cccnc3[nH]2)c1
[13]
  IC50: 13000 nM

## N[C@H]1CCCC(F)(F)[C@@H]1NC(=O)c1nc(-c2cnc3ccccn23)c(Cl)s1
[12]
  IC50: 720 nM

## CCN1C(=O)N(C(=O)NC2CC3CCC(C2)N3C)C2C=CC=CC21 (stereo not given)
[16]
  EC50: 360 nM

## CCSc1ccncc1NC(=O)c1ccnc2[nH]c(-c3ccc(N4CCCC4)cc3)nc12
[8]
  IC50: 3 nM

## CCCN(CCC)C(=O)Cc1c(-c2ccc([N+](=O)[O-])cc2)nc2c(Cl)cc(Cl)cn12
[11]
  Ki: 0.15 nM

## O=S(=O)(NCCCn1ccnc1)c1ccnc2[nH]c(-c3ccc(C(F)(F)F)cc3)nc12
[8]
  IC50: 1600 nM

## CC(C)N1C(=O)N(C(=O)NC2CC3CCC(C2)N3C)C2C=CC=CC21 (stereo not given)
[16]
  EC50: 72 nM

## Cc1nc2ccc(-c3cc(N)nc(N)c3)nc2n1C(C)C
[15]
  inhibition in vivo at 3 mg/kg: 49%

## Cc1nc(C2CC2c2nc3ccccn3c2C)cc(-n2nc(C)nc2C)n1 (stereo not given)
[17]
  Ki: 2.1 nM

## CCC/C=C/COCC(=O)Nc1cccc(-c2nc3cccnc3[nH]2)c1
[13]
  IC50: 73000 nM

## Cn1nc(N2CCC(OC(=O)N3CCN(C4CCC4)CC3)CC2)ccc1=O [LML-134]
[18]
  Ki: 12 nM

## CCCN(CCC)C(=O)Cc1c(-c2ccc(OC)cc2)nc2c(Cl)cc(Cl)cn12
[11]
  Ki: 0.537 nM
[3]
  IC50: > 10000 nM

## Fc1ccc(C(CCCN2CCC(Cc3nc4cccnc4n3Cc3cccs3)CC2)c2ccc(F)cc2)cc1
[19]
  IC50: 549 nM

## Cc1cn2c(N)c(Cl)cc(C(=O)NCC3CCNCC3)c2n1
[14]
  Ki: 26 nM

## CCCN(CCC)C(=O)Cc1c(-c2ccc(Cl)cc2)nc2c(N)cccn12
[11]
  Ki: 1.6 nM

## c1ccn2ccnc2c1
[1]
  logD: 0.73
[2]
  logP: 0.41

## COc1ccc(-c2ccnc3[nH]c(-c4ccc(C(=O)N5CCCCC5)cc4)nc23)cc1
[8]
  IC50: 31 nM

## CCCCN(C)C(=O)Cc1c(-c2ccc(OC)cc2)nc2c(Cl)cc(Cl)cn12
[11]
  Ki: 0.882 nM
[3]
  IC50: > 10000 nM

## Cn1cnc2cnccc21
[1]; read-out: logD
  logD: 0.26
[2]; read-out: logP
  logP: 0.27

## CCCN(CCC)C(=O)Cc1c(-c2ccc(Cl)cc2)nc2c(NC(=O)CCC(=O)OCC)cccn12
[11]
  Ki: 0.86 nM

## CCCCN1CCC(CNC(=O)c2cc(Cl)cn3ccnc23)CC1
[20]
  IC50: < 10 nM

## CCOCCn1c(CN2CCN(CCCC(c3ccc(F)cc3)c3ccc(F)cc3)CC2)nc2cccnc21
[19]
  IC50: 155 nM

## CCCN(CCC)C(=O)Cc1c(-c2ccc(Cl)cc2)nc2ccc(Cl)cn12 [ALPIDEM]
[11]
  IC50: 7.9 nM
  Ki: 0.5 to 7 nM
[3]
  IC50: 26 nM
